{"source": "patent US7270968B2", "about": "“PTH analogs for renal osteodystrophy and related uses” (The General Hospital Corporation, priority 2000, dated 2007)", "key": {"OC14 cells [1]": {"system": "OC14 cells", "experiment": "Apoptosis by TUNEL assay in OC cells", "format": "cell-based, mouse", "conditions": "100 nM, 6 hr", "experimental": "(§1) Cells plated on glass coverslips and maintained at 33° C. for 33 days were shifted to 39° C. for 5-7 days before addition of 100 nM hPTH(1-84) (B, D) or vehicle alone (A, C) for 6 hr. At the end of the incubations, cells were fixed and stained with Hoechst 33258 (A and B) or for TUNEL (C and D) (see Example 1). Arrows indicate apoptotic cells. 200× magnification.\n(§2) The pyknotic fragmentation of nuclei typical of apoptotic cells was detected using Hoechst-33258 fluorescent dye (Sigma Co., St. Louis, Mo., U.S.A.). Briefly, cells were cultured on glass coverslips and maintained in culture at nonpermissive conditions for 4-6 days in (α-MEM supplemented with 2-5% of FBS and 1% PS. After exposure to the test hormones for 6 hr, culture medium was aspirated and cells were fixed in 4% paraformaldehyde in phosphate buffered solution and then stained with Hoechst-33258 ([…]) for 5 min at room temperature. Cells were washed and mounted with glycerol-PBS (9:1, v/v). The stained nuclei were visualized by fluorescence microscopy using DAPI filter. In some experiments, apoptotic cells were detected by the terminal deoxynucleotidyl transferase-mediated nick end labeling (TUNEL) reaction, using the In Situ Cell Death Detection Kit from Roche Molecular Biochemicals (Indianapolis, Ind., U.S.A.) following the manufacturer's instruction."}, "Gs-linked PTH receptors [2]": {"system": "Gs-linked PTH receptors", "experiment": "Cyclic AMP accumulation in C cells (OC1, OC14, OC59)", "format": "cell-based, mouse", "conditions": "three C cells", "experimental": "The buffer then was rapidly aspirated, the plates were frozen in liquid nitrogen, and the frozen cells were subsequently thawed directly into 0.5 ml of 50 mM HCl. Cell-associated cAMP in the acid extracts was measured using an RIΛ kit (NUN Life Science Products, Boston, Mass., U.S.A.). Results were expressed as picomoles of cAMP produced per well over 15 min."}, "OC14 cells [3]": {"system": "OC14 cells", "experiment": "Cell death by trypan blue staining in OC14 cells", "format": "cell-based, mouse", "experimental": "OC14 cells were plated, cultured at 33° C. for 3 days and then incubated at 39° C. for 5-7 days before addition of PTH peptides for a further 16 hr, followed by trypan blue staining (see Example 1). A) Human PTH 1-84 dose response, B) Response to hPTH(1-84), 100 nM and hPTH(39-84), 1000 nM, C) Response to [Tyr^34]hPTH(24-84), 100 nM, D) Caspase dependance (“C”=controls) The Caspase-3 inhibitor DEVD (“D”) was added 1 hr prior to addition of 100 nM hPTH(1-84) (“P”). Results are expressed as mean±SD of quadruplicate determinations of the percentage of nonvital trypan blue-stained cells. * p<0.05, ** p<0.01.\nBriefly, cells were plated at 50,000 cells/well in 24-well dishes at 33° C. and shifted to nonpermissive conditions (39° C.) after 2 days. Cells were grown at 39° C. for an additional 4-6 days in α-MEM supplemented with 2.5% of FBS and 1% PS and then treated with different hormones for additional 16-18 hr. Non-adherent cells were combined with adherent cells that were released from the cultures with trypsin-EDTA, centrifuged and resuspended in 0.1% trypan blue solution."}, "OC14 cells [4]": {"system": "OC14 cells", "experiment": "Apoptosis by Hoechst 33258 DNA staining in OC cells", "format": "cell-based, mouse", "conditions": "100 nM, 6 hr", "experimental": "as §1, §2"}, "CPTHR": {"system": "CPTHR", "experiment": "Downregulation of CPTHR binding in C59 cells after pretreatment", "format": "cell-based, mouse", "conditions": "preincubation 16 h", "experimental": "Specific binding, is expressed as mean ± standard deviation of triplicates. * p<0.05, ** P<0.01.\nFor binding experiments, cells (100,000 cells/ml) were plated in 24-well dishes and cultured at 33° C. for 7 to 14 days. […] Receptor number was ascertained by Scatchard analysis, using [Tyr^34]hPTH-(19-84) or hPTH(1-84) as competing ligand. […] In some experiments, cells were washed with acidic buffer (50 mM glycine, 150 mM NaCl, pH 4.0) to remove residual bound ligand, prior to addition of radioligand.\n(1 mM), forskolin (10 μM), insulin (100 ng/mL), IGF-1 ([…]) or dexamethasone (100 nM)."}, "C×43 expression": {"system": "C×43 expression", "experiment": "Connexin 43 immunocytochemical staining in OC cells", "format": "cell-based, mouse", "conditions": "100 nM, 2 hr", "experimental": "OC14 cells were plated on glass coverslips at 72,000 cells/cm^2, cultured at 33° C. for 2 days and then shifted at 39° C. for 3-5 days before stimulation with CPTHR ligands. OC14 cells were treated for 2 hr with (A) vehicle alone, (B) 100 nM hPTH(1-84) or (C) 1000 nm hPTH(39-84). Cells were fixed and stained for C×43 expression as described (see Example 1).\nFor Immunocytochemical analysis, cells were plated on glass chamber slides at 72,000 cells/cm^2, cultured for two days at 33° C. and then shifted for an additional 4-6 days at 39° C. Cells were treated with vehicle alone (0.1% TFA) or with the appropriate hormone for the time indicated. The immunocytochemical staining was performed as previously described (Kato, Y., et al., J. Bone Miner. Res. 12:2014-2023 (1997)). Briefly, cells were fixed in 3% paraformaldehyde/2% sucrose in PBS and permeabilized for 5 min. with 0.05% Triton-X 100 diluted in PBS. The fixed slides were blocked in 5% BSA in TBS-T buffer for 2 h at room temperature. The cells then were incubated with a 1:125 dilution of anti-C×43 monoclonal antibody for 30 min at room temperature. The bound antibody was detected using a Vectastain ABC kit, followed by staining with VIP substrate according to manufacturer's instructions (Vector Laboratories, Burlingame, Calif.). Counter staining was performed using 0.5% methyl green. […]"}, "Gs-linked PTH receptors [5]": {"system": "Gs-linked PTH receptors", "conditions": "F1 cells and osteoblastic subclones; cited from earlier work"}}, "note": "Like-named read-outs stand apart in the source and are kept apart here.", "data": [{"substance": "hPTH(1-84): Recombinant human parathyroid hormone (1-84), the intact hormone", "values": [{"measurement": "Apoptosis, TUNEL immunocytochemical assay", "setting": "OC14 cells [1]", "result": "Increased apoptosis"}, {"measurement": "cAMP response", "setting": "Gs-linked PTH receptors [2]", "result": "absence of a detectable cAMP response"}, {"measurement": "Concentration of maximal effect upon cell death", "setting": "OC14 cells [3]; 16 hr, trypan blue", "result": 10, "unit": "nM"}, {"measurement": "EC50", "setting": "OC14 cells [3]; 16 hr, trypan blue, read-out: EC50, effect upon cell death", "result": "~0.1", "unit": "nM"}, {"measurement": "Change in trypan blue-stained cells", "setting": "OC14 cells [3]; after 16 hr", "result": "doubling"}, {"measurement": "Nuclear pyknosis and chromatin condensation, Hoechst dye 33258", "setting": "OC14 cells [4]", "result": "increased nuclear pylulosis ;aid chromatin condensation"}, {"measurement": "Reduction of specific 125I-[Tyr34]hPTH(19-84) binding", "setting": "CPTHR; 200 nM", "result": "19±5", "unit": "%"}, {"measurement": "Reduction of specific 125I-[Tyr34]hPTH(19-84) binding", "setting": "CPTHR; 1000 nM", "result": "66±7", "unit": "%"}, {"measurement": "Expression of C×43 by immunostaining", "setting": "C×43 expression", "result": "increased the expression of C×43"}, {"measurement": "cAMP response", "setting": "Gs-linked PTH receptors [5]", "result": "no detectable cAMP response"}]}]}
